Laboratory results from ChEMBL document CHEMBL5674860, “Optimized Dual-Glo Assay to identify co-culture-induced drug vulnerabilities in 3D CRC models” (2024).

Experiments:
Format in all cases: functional, Homo sapiens
Set-up in all cases: dose or concentration left out as unconfirmed
[1] = test system: Colon cancer organoid; experiment: Optimized Dual-Glo assay to identify co-culture induced drug vulnerabilities using donated chemical probes and chemogenomics kinase set in O06 CRC organoid and F06 CAF mono and co-culture. […] Cell viability is reported both mono and co-culture models.
[2] = test system: Colon cancer organoid; experiment: Optimized Dual-Glo assay to identify co-culture induced drug vulnerabilities using donated chemical probes and chemogenomics kinase set in O14 CRC organoid and F14 CAF mono and co-culture. […] Cell viability is reported both mono and co-culture models.
[3] = test system: Colon cancer organoid; experiment: Optimized Dual-Glo assay to identify co-culture induced drug vulnerabilities using donated chemical probes and chemogenomics kinase set in O20 CRC organoid and F20 CAF mono and co-culture. […] Cell viability is reported both mono and co-culture models.
[4] = Culture type Co-Culture, Transduced with Lucferase2-P2A-EGFP lentivirus
[5] = Culture type Co-Culture, Transduced with Renilla-dsRed lentivirus
[6] = Culture type Mono-Culture, Transduced with Lucferase2-P2A-EGFP lentivirus
[7] = Culture type Mono-Culture, Transduced with Renilla-dsRed lentivirus

Structure (SMILES) | Cell Viability [1, 4] | Cell Viability [1, 5] | Cell Viability [1, 6] | Cell Viability [1, 7] | Cell Viability [2, 4] | Cell Viability [2, 5] | Cell Viability [2, 6] | Cell Viability [2, 7] | Cell Viability [3, 4] | Cell Viability [3, 5] | Cell Viability [3, 6] | Cell Viability [3, 7]
CCS(=O)(=O)c1cc2cc(C[C@](O)(CC(C)(C)c3ccc(F)cc3C(N)=O)C(F)(F)F)[nH]c2cn1 [BI 653048] | 136.436% | 297.33% | 97.0766% | 179.661% | 98.1614% | 169.499% | 94.8893% | 163.254% | 85.6205% | 287.465% | 124.389% | 135.577%
CC[C@H](CC(=O)O)n1c(=O)c2ncccc2n(Cc2cn(C)c3cc(C)cc(C)c23)c1=O [BI-1942] | 119.907% | 136.619% | 121.189% | 103.918% | 138.147% | 85.0736% | 117.29% | 91.8874% | 107.514% | 100.799% | 88.7956% | 92.5825%
CC[C@@H]1C(=O)N(C)c2cnc(Nc3ccc(C(=O)NC4CCN(C)CC4)cc3OC)nc2N1C1CCCC1 [BI-2536] | 3.341% | 324.743% | 5.694% | 205.81% | 6.08% | 320.789% | 25.6478% | 192.03% | 3.7112% | 168.723% | 5.1365% | 106.916%
CN(C)C(=O)c1sc2nc(N3CCC(S(C)(=O)=O)CC3)cc(C(F)(F)F)c2c1N [BI-5026] | 108.851% | 103.89% | 124.761% | 97.708% | 89.3398% | 95.8994% | 89.8333% | 92.7462% | 82.5801% | 112.021% | 96.6036% | 91.1442%
CCC(F)(F)c1cc(N2CCC(S(C)(=O)=O)CC2)nc2sc(C(N)=O)c(N)c12 [BI-605906] | 93.6384% | 92.3898% | 93.147% | 102.109% | 108.411% | 90.1855% | 95.9322% | 83.0517% | 178.631% | 81.0914% | 102.635% | 91.2338%
CCOc1ccn(-c2ccc(F)cc2)c(=O)c1C(=O)Nc1ccc(Oc2ccnc(N)c2Cl)c(F)c1 [BMS-777607] | 91.8113% | 94.0587% | 160.363% | 101.253% | 80.1334% | 87.7624% | 119.97% | 83.2963% | 100.473% | 72.8578% | 109.106% | 74.8704%
O=c1nc(-c2ccccn2)sc2ccccc12 [BTZO-1] | 150.72% | 152.299% | 108.701% | 93.9423% | 72.8422% | 97.4125% | 100.899% | 88.8475% | 113.092% | 104.485% | 93.617% | 87.2617%
O=C1NC(c2ccccn2)Sc2ccccc21 (stereo not given) [BTZO-4] | 120.289% | 168.274% | 120.842% | 96.0026% | 61.6346% | 107.214% | 121.016% | 104.244% | 109.35% | 85.8309% | 124.511% | 93.402%
C=CC(=O)Nc1ccc2[nH]c(=O)n(C3CCN(Cc4ccc(-c5nc6cc[nH]c(=O)c6cc5-c5ccccc5)cc4)CC3)c2c1 [Borussertib] | 51.8578% | 132.383% | 55.1299% | 71.4174% | 51.6115% | 159.043% | 54.7811% | 69.4418% | 47.4641% | 149.193% | 22.6881% | 97.2977%
O=C(NOCC1CC1)c1ccc(F)c(F)c1Nc1ccc(I)cc1Cl [CI-1040] | 38.2974% | 73.8424% | 7.023% | 67.7326% | 16.7737% | 86.2158% | 10.461% | 42.9063% | 43.8229% | 195.336% | 27.7103% | 59.0843%
